Results published in US7026475B2, “Positive allosteric AMPA receptor modulators (PAARM), processes for preparing them, and their use as pharmaceutical compositions” (Boehringer Ingelheim Pharma GmbH & Co. KG, priority 2001, dated 2006).

Tested on: AMPA receptors
Assay: Electrophysiological measurement of intensification of the agonist-induced current on cells expressing functional AMPA receptors
Format: cell-based
Set-up: key: + good; + + very good
Conditions: positive allosteric influence on agonist-induced current; tested at concentrations between 0.3 μmol and 300 μmol
Method: The effect of the compounds according to the invention as AMPA receptor modulators was measured electrophysiologically on cells which express functional AMPA receptors. Investigations were carried out to see whether the test substances have a positive allosteric influence on the agonist-induced current.
The test was carried out at concentrations of between 0.3 μmol and 300 μmol.

Compound	Intensification of the Agonist-Induced Current, Activity
CC1Nc2ccc(Cl)c3cccc(c23)S1(=O)=O (centres unmarked) [Example 2, 6-chloro-2-methyl-2,3-dihydronaphtho[1,8-de][1,3]thiazine-1,1-dioxide]	+ +
CC1Nc2cccc3cccc(c23)S1(=O)=O (centres unmarked) [Example 1, 2-methyl-2,3-dihydronaphtho[1,8-de][1,3]thiazine-1,1-dioxide]	+
